Experimental data from patent EP0542837B1, “PROPYLAMINE DERIVATIVES” (NORGINE LIMITED, priority 1990, dated 1992).
Like-named read-outs stand apart in the source and are kept apart here.

Tested on: Guinea-pig ileum muscle
Assay: Antispasmodic activity: reduction of the acetylcholine contraction of isolated ileum in a gut bath
Assay type: cell-based
Method: Antispasmodic activity was determined using standard methodology. (d) Guinea-pig ileum muscle was suspended in a gut bath, in oxygenated Tyrode's solution at 37°. Doses of acetylcholine were added to the gut bath fluid, the contraction recorded, and the bath washed out with fresh Tyrode's solution. This was carried out repeatedly to establish a dose of acetylcholine to cause a sub-maximal response. This dose of acetylcholine was used repeatedly, on a 2 minute cycle to establish steady responses. Doses of antispasmodic were then added 30 seconds before the acetylcholine dose to establish the magnitude of reduction of the acetylcholine contraction.

| Structure (SMILES) | equivalent amount for antispasmodic activity [ng] | equivalent amount for antispasmodic activity (equi-active amounts of the amine hydrochloride and atropine sulphate, acetylcholine contraction, oxygenated Tyrode's solution at 37°) [ng] | antispasmodic activity times less than the standard (relative to atropine sulphate as standard, acetylcholine contraction, oxygenated Tyrode's solution at 37°, antispasmodic added 30 seconds before the acetylcholine dose) |
| --- | --- | --- | --- |
| CN1C2CCC1CC(OC(=O)C(CO)c1ccccc1)C2 (racemic) [atropine sulphate, reference compound] | 0.06 |  |  |
| CCN(CCCc1ccccc1)CCCc1ccc(O)cc1 [compound (II), N-ethyl, N-(3-phenylpropyl), 3-(4-hydroxyphenyl)-propylamine] |  | 1.5 | approximately 25 times |
